Reference: ChEMBL document CHEMBL4428092, “Synthesis and activity evaluation of the cyclic dipeptides arylidene N-alkoxydiketopiperazines” (Bioorg Med Chem, 2016)

Assays:
[1] = test system: HCT-8; assay: Growth inhibition of human HCT8 cells at 20 ug/ml relative to control; type: functional; details: read-out: GI
[2] = test system: HepG2; assay: Growth inhibition of human HepG2 cells at 20 ug/ml relative to control; type: functional; details: read-out: GI
[3] = test system: MDA-MB-231; assay: Growth inhibition of human MDA-MB-231 cells at 20 ug/ml relative to control; type: functional; details: read-out: GI
[4] = Growth inhibition of human Bre04 cells at 20 ug/ml after 24 hrs by sulforhodamine B assay relative to control; type: functional; details: Bre04, 24 h, read-out: GI
[5] = Growth inhibition of human K562-1 cells at 20 ug/ml relative to control; type: functional; details: read-out: GI
[6] = test system: HCT-15; assay: Growth inhibition of human HCT15 cells at 20 ug/ml relative to control; type: functional; details: read-out: GI
[7] = test system: HT-29; assay: Growth inhibition of human HT-29 cells at 20 ug/ml relative to control; type: functional; details: read-out: GI
[8] = test system: A549; assay: Growth inhibition of human A549 cells at 20 ug/ml relative to control; type: functional; details: read-out: GI
[9] = Growth inhibition of human K562-1 cells at 20 ug/ml after 24 hrs by sulforhodamine B assay relative to control; type: functional; details: read-out: GI
[10] = test system: HCT-15; assay: Growth inhibition of human HCT15 cells at 20 ug/ml after 24 hrs by sulforhodamine B assay relative to control; type: functional; details: HCT-15, 24 h, read-out: GI
[11] = test system: HT-29; assay: Growth inhibition of human HT-29 cells at 20 ug/ml after 24 hrs by sulforhodamine B assay relative to control; type: functional; details: HT-29, 24 h, read-out: GI
[12] = test system: A549; assay: Growth inhibition of human A549 cells at 20 ug/ml after 24 hrs by sulforhodamine B assay relative to control; type: functional; details: A549, 24 h, read-out: GI
[13] = Cytotoxicity against human K562-1 cells at 100 uM after 24 hrs by sulforhodamine B assay relative to control; type: functional
[14] = Cytotoxicity against human K562-1 cells at 50 uM after 24 hrs by sulforhodamine B assay relative to control; type: functional
[15] = Cytotoxicity against human K562-1 cells at 20 uM after 24 hrs by sulforhodamine B assay relative to control; type: functional
[16] = Cytotoxicity against human K562-1 cells at 10 uM after 24 hrs by sulforhodamine B assay relative to control; type: functional
[17] = Cytotoxicity against human K562-1 cells at 5 uM after 24 hrs by sulforhodamine B assay relative to control; type: functional
[18] = test system: HCT-15; assay: Cytotoxicity against human HCT15 cells at 100 uM after 24 hrs by sulforhodamine B assay relative to control; type: functional
[19] = test system: HCT-15; assay: Cytotoxicity against human HCT15 cells at 50 uM after 24 hrs by sulforhodamine B assay relative to control; type: functional
[20] = test system: HCT-15; assay: Cytotoxicity against human HCT15 cells at 20 uM after 24 hrs by sulforhodamine B assay relative to control; type: functional
[21] = test system: HCT-15; assay: Cytotoxicity against human HCT15 cells at 10 uM after 24 hrs by sulforhodamine B assay relative to control; type: functional
[22] = test system: HCT-15; assay: Cytotoxicity against human HCT15 cells at 5 uM after 24 hrs by sulforhodamine B assay relative to control; type: functional
[23] = test system: HT-29; assay: Cytotoxicity against human HT-29 cells at 100 uM after 24 hrs by sulforhodamine B assay relative to control; type: functional
[24] = test system: HT-29; assay: Cytotoxicity against human HT-29 cells at 50 uM after 24 hrs by sulforhodamine B assay relative to control; type: functional
[25] = test system: HT-29; assay: Cytotoxicity against human HT-29 cells at 20 uM after 24 hrs by sulforhodamine B assay relative to control; type: functional
[26] = test system: HT-29; assay: Cytotoxicity against human HT-29 cells at 10 uM after 24 hrs by sulforhodamine B assay relative to control; type: functional
[27] = test system: A549; assay: Cytotoxicity against human A549 cells at 100 uM after 24 hrs by sulforhodamine B assay relative to control; type: functional
[28] = test system: A549; assay: Cytotoxicity against human A549 cells at 50 uM after 24 hrs by sulforhodamine B assay relative to control; type: functional
[29] = test system: A549; assay: Cytotoxicity against human A549 cells at 20 uM after 24 hrs by sulforhodamine B assay relative to control; type: functional
[30] = test system: A549; assay: Cytotoxicity against human A549 cells at 10 uM after 24 hrs by sulforhodamine B assay relative to control; type: functional
[31] = test system: A549; assay: Cytotoxicity against human A549 cells at 5 uM after 24 hrs by sulforhodamine B assay relative to control; type: functional
[32] = Antiproliferative activity against human K562-1 cells after 24 hrs by sulforhodamine B assay relative to control; type: functional, cell-based
[33] = test system: HCT-15; assay: Antiproliferative activity against human HCT15 cells after 24 hrs by sulforhodamine B assay relative to control; type: functional, cell-based; details: HCT-15, 24 h
[34] = test system: A549; assay: Antiproliferative activity against human A549 cells after 24 hrs by sulforhodamine B assay relative to control; type: functional, cell-based; details: A549, 24 h

O=C1[C@@H]2CCCN2C(=O)/C(=C\c2cccnc2)N1OC1CCCCC1
inhibition of growth at 20 µg/mL [1]: 80.1%
inhibition of growth at 20 µg/mL [2]: 60.4%
inhibition of growth at 20 µg/mL [3]: 16.1%
inhibition of growth at 20 µg/mL [4]: 35.3%
inhibition of growth at 20 µg/mL [5]: 69.3%
inhibition of growth at 20 µg/mL [6]: 62.1%
inhibition of growth at 20 µg/mL [7]: 70.3%
inhibition of growth at 20 µg/mL [8]: 35.2%

COc1cc(/C=C2\C(=O)N3CCC[C@H]3C(=O)N2OCc2ccc(Cl)cc2)cc(OC)c1OC
inhibition of growth at 20 µg/mL [9]: 95.7%
inhibition of growth at 20 µg/mL [10]: 92.6%
inhibition of growth at 20 µg/mL [11]: 53.2%
inhibition of growth at 20 µg/mL [12]: 76.6%
inhibition of growth at 20 µg/mL [4]: 50.3%
Activity [13]: 97.8%
Activity [14]: 96.5%
Activity [15]: 73.9%
Activity [16]: 58.1%
Activity [17]: 36.7%
Activity [18]: 98.6%
Activity [19]: 94.4%
Activity [20]: 81.6%
Activity [21]: 60.5%
Activity [22]: 42.4%
Activity [23]: 86.8%
Activity [24]: 55.7%
Activity [25]: 39.2%
Activity [26]: 24.2%
Activity [27]: 91.7%
Activity [28]: 81.8%
Activity [29]: 63.4%
Activity [30]: 48.1%
Activity [31]: 4.03%
IC50 [32]: 7.3 µM
IC50 [33]: 8.6 µM
IC50 [34]: 11.4 µM

CON1C(=O)[C@@H]2CCCN2C(=O)/C1=C\c1ccccc1
inhibition of growth at 20 µg/mL [1]: 78.8%
inhibition of growth at 20 µg/mL [2]: 62.2%
inhibition of growth at 20 µg/mL [3]: 23.5%
inhibition of growth at 20 µg/mL [4]: 24.5%
inhibition of growth at 20 µg/mL [5]: 90.4%
inhibition of growth at 20 µg/mL [6]: 88.8%
inhibition of growth at 20 µg/mL [7]: 65.4%
inhibition of growth at 20 µg/mL [8]: 26.6%
Activity [13]: 98.6%
Activity [14]: 87.3%
Activity [15]: 55.4%
Activity [16]: 36.2%
Activity [17]: 24.4%
Activity [18]: 96.5%
Activity [19]: 82.6%
Activity [20]: 60.5%
Activity [21]: 46.8%
Activity [22]: 37.3%
Activity [23]: 88.6%
Activity [24]: 56.4%
Activity [25]: 34.9%
Activity [26]: 28.1%
Activity [27]: 50.5%
Activity [28]: 22.4%
IC50 [32]: 17.6 µM
IC50 [33]: 14.1 µM

CCON1C(=O)[C@@H]2CCCN2C(=O)/C1=C\c1ccccc1
inhibition of growth at 20 µg/mL [9]: 42.6%
inhibition of growth at 20 µg/mL [11]: 62.8%
inhibition of growth at 20 µg/mL [12]: 25.3%
inhibition of growth at 20 µg/mL [4]: 21.9%

CCCCON1C(=O)[C@@H]2CCCN2C(=O)/C1=C\c1cc(OC)c(OC)c(OC)c1
inhibition of growth at 20 µg/mL [1]: 60.6%
inhibition of growth at 20 µg/mL [2]: 64.3%
inhibition of growth at 20 µg/mL [3]: 45.6%
inhibition of growth at 20 µg/mL [5]: 64.4%
inhibition of growth at 20 µg/mL [6]: 61.6%
inhibition of growth at 20 µg/mL [7]: 61.6%
inhibition of growth at 20 µg/mL [8]: 43.4%

COc1cc(/C=C2\C(=O)N3CCC[C@H]3C(=O)N2OC2CCCCC2)cc(OC)c1OC
inhibition of growth at 20 µg/mL [9]: 80.1%
inhibition of growth at 20 µg/mL [1]: 75.2%
inhibition of growth at 20 µg/mL [2]: 76.1%
inhibition of growth at 20 µg/mL [3]: 42.5%
inhibition of growth at 20 µg/mL [6]: 67.9%
inhibition of growth at 20 µg/mL [7]: 60.5%
inhibition of growth at 20 µg/mL [8]: 26.4%
Activity [13]: 96.4%
Activity [14]: 83.6%
Activity [15]: 61.3%
Activity [16]: 50.7%
Activity [17]: 30.2%
Activity [18]: 89.7%
Activity [19]: 69.3%
Activity [20]: 47.6%
Activity [21]: 39.2%
Activity [22]: 40.4%
Activity [23]: 88.5%
Activity [24]: 56.6%
Activity [25]: 42.9%
Activity [26]: 48.8%
Activity [28]: 33.4%
Activity [29]: 20.5%
IC50 [32]: 9.8 µM
IC50 [33]: 23.7 µM

CCCCON1C(=O)[C@@H]2CCCN2C(=O)/C1=C\c1ccccc1
inhibition of growth at 20 µg/mL [1]: 68.4%
inhibition of growth at 20 µg/mL [2]: 59.9%
inhibition of growth at 20 µg/mL [3]: 16.3%
inhibition of growth at 20 µg/mL [5]: 96.2%
inhibition of growth at 20 µg/mL [6]: 90.6%
inhibition of growth at 20 µg/mL [7]: 64.9%
inhibition of growth at 20 µg/mL [8]: 50.8%
Activity [13]: 99.6%
Activity [14]: 92.7%
Activity [15]: 46.5%
Activity [16]: 39.2%
Activity [17]: 30.2%
Activity [18]: 99.1%
Activity [19]: 87.5%
Activity [20]: 78.3%
Activity [21]: 48.8%
Activity [22]: 4.04%
Activity [23]: 80.6%
Activity [24]: 61.6%
Activity [25]: 39.8%
Activity [26]: 21.2%
Activity [27]: 91.1%
Activity [28]: 48.4%
Activity [29]: 16.2%
IC50 [32]: 27.3 µM
IC50 [33]: 11.8 µM

O=C1[C@@H]2CCCN2C(=O)/C(=C\c2ccccc2)N1OC1CCCCC1
inhibition of growth at 20 µg/mL [1]: 76.3%
inhibition of growth at 20 µg/mL [2]: 68.5%
inhibition of growth at 20 µg/mL [3]: 17.3%
inhibition of growth at 20 µg/mL [5]: 78.2%
inhibition of growth at 20 µg/mL [6]: 72.3%
inhibition of growth at 20 µg/mL [7]: 69.4%
inhibition of growth at 20 µg/mL [8]: 33.8%

COc1cc(/C=C2\C(=O)N3CCC[C@H]3C(=O)N2OCc2ccccc2)cc(OC)c1OC
inhibition of growth at 20 µg/mL [1]: 79.1%
inhibition of growth at 20 µg/mL [2]: 75%
inhibition of growth at 20 µg/mL [3]: 43.2%
inhibition of growth at 20 µg/mL [5]: 73.2%
inhibition of growth at 20 µg/mL [6]: 74.2%
inhibition of growth at 20 µg/mL [7]: 70.1%
inhibition of growth at 20 µg/mL [8]: 8.9%

O=C1[C@@H]2CCCN2C(=O)/C(=C\c2ccccc2)N1OCc1ccccc1
inhibition of growth at 20 µg/mL [1]: 66.8%
inhibition of growth at 20 µg/mL [2]: 69.2%
inhibition of growth at 20 µg/mL [3]: 32.6%
inhibition of growth at 20 µg/mL [4]: 25%
inhibition of growth at 20 µg/mL [5]: 65.6%
inhibition of growth at 20 µg/mL [6]: 69.7%
inhibition of growth at 20 µg/mL [7]: 76.2%
inhibition of growth at 20 µg/mL [8]: 41.3%

COc1cc(/C=C2\C(=O)N3CCC[C@H]3C(=O)N2OCc2cccnc2)cc(OC)c1OC
inhibition of growth at 20 µg/mL [10]: 78.7%
inhibition of growth at 20 µg/mL [11]: 30.7%
inhibition of growth at 20 µg/mL [12]: 27.1%
